Results from US20260262643A1, “HERBICIDAL BENZOXAZINES” (FMC CORPORATION, priority 2022, published 2026).

Legend:
corn [1] = test: Test C preemergence; assay type: in vivo, Zea mays
In short: (§1)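 Pre: seeds in loam/sand, directed soil spray. Post: 1–2 leaf plants, 2–10 cm. Cmpd in non-phytotoxic solvent + surfactant. Greenhouse 10 d; visual rating vs untreated, 0 = none, 100 = complete control.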

kochia [2] = test: Test C postemergence; assay type: in vivo, Bassia scoparia; conditions: 10 days, 0 to 100 scale (0 no effect, 100 complete control)
In short: as §1

kochia [3] = test: Test C preemergence; assay type: in vivo, Bassia scoparia
In short: as §1

foxtail, giant [4] = test: Test C postemergence; assay type: in vivo, Setaria faberi; conditions: 10 days, 0 to 100 scale (0 no effect, 100 complete control)
In short: as §1

foxtail, giant [5] = test: Test C preemergence; assay type: in vivo, Setaria faberi
In short: as §1

barnyardgrass [6] = test: Test D flooded paddy test; assay type: in vivo, Echinochloa crus-galli; conditions: 250 g ai/ha, applied to paddy water, visual rating after 13 to 14 days, scale 0 to 100 (0 no effect, 100 complete control)
In short: (§2)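 Post-flood water application at the 2-leaf stage; 3 cm flood depth kept constant; visual control rating 0–100 after 13–14 days greenhouse growth.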

ryegrass, Italian [7] = test: Test C postemergence; assay type: in vivo, Lolium multiflorum; conditions: 10 days, 0 to 100 scale (0 no effect, 100 complete control)
In short: as §1

ragweed [8] = test: Test C postemergence; assay type: in vivo, Ambrosia artemisiifolia; conditions: 10 days, 0 to 100 scale (0 no effect, 100 complete control)
In short: as §1

barnyardgrass [9] = test: Test C postemergence; assay type: in vivo, Echinochloa crusgalli; conditions: 10 days, 0 to 100 scale (0 no effect, 100 complete control)
In short: as §1

rice = test: Test D flooded paddy test; assay type: in vivo, Oryza sativa; conditions: 250 g ai/ha, applied to paddy water, visual rating after 13 to 14 days, scale 0 to 100 (0 no effect, 100 complete control)
In short: as §2

ragweed [10] = test: Test C preemergence; assay type: in vivo, Ambrosia artemisiifolia
In short: as §1

soybean [11] = test: Test C preemergence; assay type: in vivo, Glycine max
In short: as §1

blackgrass [12] = test: Test C preemergence; assay type: in vivo, Alopecurus myosuroides
In short: as §1

blackgrass [13] = test: Test C postemergence; assay type: in vivo, Alopecurus myosuroides; conditions: 10 days, 0 to 100 scale (0 no effect, 100 complete control)
In short: as §1

pigweed, palmer [14] = test: Test C preemergence; assay type: in vivo, Amaranthus palmeri
In short: as §1

ducksalad = test: Test D flooded paddy test; assay type: in vivo, Heteranthera limosa; conditions: 250 g ai/ha, applied to paddy water, visual rating after 13 to 14 days, scale 0 to 100 (0 no effect, 100 complete control)
In short: as §2

wheat [15] = test: Test C postemergence; assay type: in vivo, Triticum aestivum; conditions: 10 days, 0 to 100 scale (0 no effect, 100 complete control)
In short: as §1

horseweed = test: Test C postemergence; assay type: in vivo, Erigeron canadensis; conditions: 10 days, 0 to 100 scale (0 no effect, 100 complete control)
In short: as §1

ryegrass, Italian [16] = test: Test C preemergence; assay type: in vivo, Lolium multiflorum
In short: as §1

pigweed, palmer [17] = test: Test C postemergence; assay type: in vivo, Amaranthus palmeri; conditions: 10 days, 0 to 100 scale (0 no effect, 100 complete control)
In short: as §1

oat, wild [18] = test: Test C postemergence; assay type: in vivo, Avena fatua; conditions: 10 days, 0 to 100 scale (0 no effect, 100 complete control)
In short: as §1

soybean [19] = test: Test C postemergence; assay type: in vivo, Glycine max; conditions: 10 days, 0 to 100 scale (0 no effect, 100 complete control)
In short: as §1

sedge, umbrella = test: Test D flooded paddy test; assay type: in vivo, Cyperus difformis; conditions: 250 g ai/ha, applied to paddy water, visual rating after 13 to 14 days, scale 0 to 100 (0 no effect, 100 complete control)
In short: as §2

corn [20] = test: Test C postemergence; assay type: in vivo, Zea mays; conditions: 10 days, 0 to 100 scale (0 no effect, 100 complete control)
In short: as §1

oat, wild [21] = test: Test C preemergence; assay type: in vivo, Avena fatua
In short: as §1

galium = test: Test C postemergence; assay type: in vivo, Galium aparine; conditions: 10 days, 0 to 100 scale (0 no effect, 100 complete control)
In short: as §1

wheat [22] = test: Test C preemergence; assay type: in vivo, Triticum aestivum
In short: as §1

barnyardgrass [23] = test: Test C preemergence; assay type: in vivo, Echinochloa crusgalli
In short: as §1

[24] = 500 g ai/ha, preemergence, 0 to 100 scale (0 no effect, 100 complete control)
[25] = Preemergence, 125 g ai/ha, 0 to 100 scale, 0 no effect, 100 complete control

Q: With `Cc1cccc2c1OC(C(F)(F)F)CN2C(=O)c1ccnc(-n2cnc(C(C)(C)C)n2)c1` (stereo not shown) [Compound 319] as the compound, how does the “Corn plant response rating” value (corn [1]; [24]) read?
A: 20

Q: And the “Plant response rating, Corn” value (corn [1]; [25])?
A: 0

Q: What about the “Plant response rating, Kochia” value (kochia [2]; 500 g ai/ha, postemergence) of the same compound?
A: 90

Q: And the “Plant response rating, Kochia” value (kochia [2]; Postemergence, 125 g ai/ha)?
A: 40

Q: And the “Kochia plant response rating” value (kochia [3]; [24])?
A: 0

Q: What about the “Plant response rating, Kochia” value (kochia [3]; [25]) of the same compound?
A: 0

Q: And the “Plant response rating, Foxtail, Giant” value (foxtail, giant [4]; 500 g ai/ha, postemergence)?
A: 80

Q: What about the “Plant response rating, Foxtail, Giant” value (foxtail, giant [4]; Postemergence, 125 g ai/ha) of the same compound?
A: 30

Q: And the “Foxtail, Giant plant response rating” value (foxtail, giant [5]; [24])?
A: 100

Q: What about the “Plant response rating, Foxtail, Giant” value (foxtail, giant [5]; [25]) of the same compound?
A: 100

Q: And the “Plant response rating, Barnyardgrass (Flood)” value (barnyardgrass [6])?
A: 0

Q: And the “Plant response rating, Ryegrass, Italian” value (ryegrass, Italian [7]; 500 g ai/ha, postemergence)?
A: 50

Q: What about the “Plant response rating, Ryegrass, Italian” value (ryegrass, Italian [7]; Postemergence, 125 g ai/ha) of the same compound?
A: 30

Q: And the “Plant response rating, Ragweed” value (ragweed [8]; 500 g ai/ha, postemergence)?
A: 70

Q: What about the “Plant response rating, Ragweed” value (ragweed [8]; Postemergence, 125 g ai/ha) of the same compound?
A: 0

Q: What about the “Plant response rating, Barnyardgrass” value (barnyardgrass [9]; 500 g ai/ha, postemergence) of the same compound?
A: 60

Q: And the “Plant response rating, Barnyardgrass” value (barnyardgrass [9]; Postemergence, 125 g ai/ha)?
A: 10

Q: And the “Plant response rating, Rice (Flood)” value (rice)?
A: 0

Q: What about the “Ragweed plant response rating” value (ragweed [10]; [24]) of the same compound?
A: 0

Q: And the “Plant response rating, Ragweed” value (ragweed [10]; [25])?
A: 0

Q: And the “Soybean plant response rating” value (soybean [11]; [24])?
A: 100

Q: What about the “Plant response rating, Soybean” value (soybean [11]; [25]) of the same compound?
A: 20

Q: What about the “Blackgrass plant response rating” value (blackgrass [12]; [24]) of the same compound?
A: 70

Q: What about the “Plant response rating, Blackgrass” value (blackgrass [12]; [25]) of the same compound?
A: 50

Q: And the “Plant response rating, Blackgrass” value (blackgrass [13]; 500 g ai/ha, postemergence)?
A: 80

Q: And the “Plant response rating, Blackgrass” value (blackgrass [13]; Postemergence, 125 g ai/ha)?
A: 10

Q: What about the “Pigweed, Palmer plant response rating” value (pigweed, palmer [14]; [24]) of the same compound?
A: 90

Q: What about the “Plant response rating, Pigweed, Palmer” value (pigweed, palmer [14]; [25]) of the same compound?
A: 80

Q: What about the “Plant response rating, Ducksalad (Flood)” value (ducksalad) of the same compound?
A: 0

Q: And the “Plant response rating, Wheat” value (wheat [15]; 500 g ai/ha, postemergence)?
A: 10

Q: And the “Plant response rating, Wheat” value (wheat [15]; Postemergence, 125 g ai/ha)?
A: 10

Q: What about the “Plant response rating, Horseweed” value (horseweed; 500 g ai/ha, postemergence) of the same compound?
A: 30

Q: And the “Plant response rating, Horseweed” value (horseweed; Postemergence, 125 g ai/ha)?
A: 0

Q: And the “Ryegrass, Italian plant response rating” value (ryegrass, Italian [16]; [24])?
A: 100

Q: What about the “Plant response rating, Ryegrass, Italian” value (ryegrass, Italian [16]; [25]) of the same compound?
A: 100

Q: And the “Plant response rating, Pigweed, Palmer” value (pigweed, palmer [17]; 500 g ai/ha, postemergence)?
A: 80

Q: What about the “Plant response rating, Pigweed, Palmer” value (pigweed, palmer [17]; Postemergence, 125 g ai/ha) of the same compound?
A: 30

Q: What about the “Plant response rating, Oat, Wild” value (oat, wild [18]; 500 g ai/ha, postemergence) of the same compound?
A: 30

Q: What about the “Plant response rating, Oat, Wild” value (oat, wild [18]; Postemergence, 125 g ai/ha) of the same compound?
A: 0

Q: What about the “Plant response rating, Soybean” value (soybean [19]; 500 g ai/ha, postemergence) of the same compound?
A: 100

Q: What about the “Plant response rating, Soybean” value (soybean [19]; Postemergence, 125 g ai/ha) of the same compound?
A: 100

Q: What about the “Plant response rating, Sedge, Umbrella (Flood)” value (sedge, umbrella) of the same compound?
A: 0

Q: And the “Plant response rating, Corn” value (corn [20]; 500 g ai/ha, postemergence)?
A: 50

Q: What about the “Plant response rating, Corn” value (corn [20]; Postemergence, 125 g ai/ha) of the same compound?
A: 20

Q: And the “Oat, Wild plant response rating” value (oat, wild [21]; [24])?
A: 40

Q: And the “Plant response rating, Oat, Wild” value (oat, wild [21]; [25])?
A: 20

Q: And the “Plant response rating, Galium” value (galium; 500 g ai/ha, postemergence)?
A: 70

Q: What about the “Plant response rating, Galium” value (galium; Postemergence, 125 g ai/ha) of the same compound?
A: 60

Q: And the “Wheat plant response rating” value (wheat [22]; [24])?
A: 30

Q: What about the “Plant response rating, Wheat” value (wheat [22]; [25]) of the same compound?
A: 0

Q: And the “Barnyardgrass plant response rating” value (barnyardgrass [23]; [24])?
A: 90

Q: And the “Plant response rating, Barnyardgrass” value (barnyardgrass [23]; [25])?
A: 40
